We go through four compounds from ChEMBL document CHEMBL4130445, “TNF-α and IL-6 inhibitors: Conjugates of N-substituted indole and aminophenylmorpholin-3-one as anti-inflammatory agents” (Eur J Med Chem, 2017).

The inhibition is the relative decrease from the control value, in per cent. Usually inhibition in vivo stands for how much of the control response was suppressed. A word on the IC50: it is the concentration that inhibits the measured activity by half.

Calls of active or inactive are those of the source. No cut-off for these calls is given here.

The test system of series [1] is BV-2. Put plainly: Inhibition of LPS-induced TNFalpha production in mouse BV2 cells at 60 uM pre-incubated before LPS stimulation by ELISA. It counts as functional. On the technique in general: ELISA stands for enzyme-linked immunosorbent assay.
In series [2] the test system is BV-2. The series can be described thus: Inhibition of LPS-induced TNFalpha production in mouse BV2 cells at 100 uM pre-incubated before LPS stimulation by ELISA. The class given is functional.
The test system of series [3] is BV-2. The series can be described thus: Inhibition of LPS-induced TNFalpha production in mouse BV2 cells at 10 uM pre-incubated before LPS stimulation by ELISA. It counts as functional.
Series [4] addresses Transcription factor Jun (Mus musculus) (UniProt P05627). Put plainly: Inhibition of LPS-induced AP1 nuclear translocation in mouse BV2 cells pre-incubated before LPS stimulation by immunostaining based confocal laser microscopy. It counts as cell-based.
Series [5] is described as follows: Cytotoxicity in mouse BV2 cells assessed as cell viability at 20 uM incubated for 48 hrs by MTT assay (reference value: 100%). The note with it: read-out: Activity. It counts as cell-based, BV-2.
The subject of series [6] is BV-2. Put plainly: Inhibition of LPS-induced MMP9 production production in mouse BV2 cells assessed as MMP9 protein level pre-incubated before LPS stimulation by gelatin zymography (reference value: 105.113%). The class given is functional. More on the design: scale not given: the % may be the effect or the level left.
The nature of series [7]: Cytotoxicity in mouse BV2 cells assessed as cell viability at 60 uM incubated for 48 hrs by MTT assay (reference value: 100%). The note with it: read-out: Activity. It counts as cell-based, BV-2. (Formazan colour is commonly taken as a measure of viable cells.)
The subject of series [8] is Mus musculus. The series can be described thus: Toxicity in Swiss albino mouse model of acetic acid induced writhing up to 2000 mg/kg, ip dosed 30 mins before acetic acid injection. The note with it: in vivo, 0.5 h. The class given is organism-based. In general terms: An intraperitoneal irritant provokes the stretching counted in writhing tests.
The test system of series [9] is BV-2. Put plainly: Inhibition of LPS-induced MMP2 production production in mouse BV2 cells pre-incubated before LPS stimulation by gelatin zymography. It counts as functional, cell-based.
Series [10] is described as follows: Cytotoxicity in mouse BV2 cells assessed as cell viability at 10 uM incubated for 48 hrs by MTT assay (reference value: 100%). The class given is cell-based, BV-2. As to conditions: read-out: Activity.
For series [11], the target named is T1, Prostaglandin G/H synthase 2 (Homo sapiens) (UniProt P35354).
T1 sequence (whole entry): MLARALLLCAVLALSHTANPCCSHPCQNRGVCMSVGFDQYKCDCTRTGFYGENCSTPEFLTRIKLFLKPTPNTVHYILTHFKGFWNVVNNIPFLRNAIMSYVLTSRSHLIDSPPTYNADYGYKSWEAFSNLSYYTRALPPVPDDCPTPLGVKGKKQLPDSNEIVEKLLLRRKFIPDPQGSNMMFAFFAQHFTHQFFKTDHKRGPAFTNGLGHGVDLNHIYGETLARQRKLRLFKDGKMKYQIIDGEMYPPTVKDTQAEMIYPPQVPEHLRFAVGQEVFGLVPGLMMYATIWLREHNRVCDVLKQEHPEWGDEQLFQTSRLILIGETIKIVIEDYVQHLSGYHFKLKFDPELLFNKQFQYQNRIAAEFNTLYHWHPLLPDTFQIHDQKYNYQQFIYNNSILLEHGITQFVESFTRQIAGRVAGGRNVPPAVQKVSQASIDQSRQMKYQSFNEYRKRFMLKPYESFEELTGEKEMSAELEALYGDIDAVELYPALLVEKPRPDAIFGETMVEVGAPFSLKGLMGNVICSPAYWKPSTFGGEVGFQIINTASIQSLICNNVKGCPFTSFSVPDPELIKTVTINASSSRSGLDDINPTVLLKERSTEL
The series can be described thus: Inhibition of COX2 (unknown origin) by immunoassay.

For series [12], the system named is BV-2. Put plainly: Inhibition of LPS-induced MMP2 production production in mouse BV2 cells assessed as MMP2 protein level pre-incubated before LPS stimulation by gelatin zymography (reference value: 105.071%). More on the design: scale not given: the % may be the effect or the level left. The class given is functional.
The test system of series [13] is BV-2. Put plainly: Inhibition of LPS-induced MMP9 production production in mouse BV2 cells pre-incubated before LPS stimulation by gelatin zymography. It counts as functional, cell-based.
Series [14] has as its system Mus musculus. The series can be described thus: Analgesic activity in Swiss albino mouse model of acetic acid induced writhing assessed as inhibition of pain response at 10 mg/kg, ip dosed 30 mins before acetic acid injection. The class given is functional.
The test system of series [15] is BV-2. The series can be described thus: Inhibition of LPS-induced IL6 production in mouse BV2 cells at 20 uM pre-incubated before LPS stimulation by ELISA. The class given is functional.
Series [16] deals with BV-2. Put plainly: Inhibition of LPS-induced TNFalpha production in mouse BV2 cells at 20 uM pre-incubated before LPS stimulation by ELISA. It counts as functional.
The species named for series [17] is Mus musculus. The series can be described thus: Inhibition of LPS-induced NFkappaB nuclear translocation in mouse BV2 cells pre-incubated before LPS stimulation by immunostaining based confocal laser microscopy. It counts as cell-based.
A short description of series [18]: Cytotoxicity in mouse BV2 cells assessed as cell viability at 5 uM incubated for 48 hrs by MTT assay (reference value: 100%). The note with it: read-out: Activity. The class given is cell-based, BV-2.
The nature of series [19]: Cytotoxicity in mouse BV2 cells assessed as cell viability at 100 uM incubated for 48 hrs by MTT assay (reference value: 100%). The note with it: read-out: Activity. It counts as cell-based, BV-2.
For series [20], the system named is BV-2. The series can be described thus: Inhibition of LPS-induced IL6 production in mouse BV2 cells assessed as IL6 level at 20 uM pre-incubated before LPS stimulation by ELISA (reference value: 146.75%). It counts as functional. More on the design: scale not given: the % may be the effect or the level left.
Series [21] deals with BV-2. The series can be described thus: Cytotoxicity in mouse BV2 cells assessed as reduction in cell viability incubated for 48 hrs by MTT assay. It counts as cell-based. The note with it: BV-2, 48 h.
In series [22] the test system is BV-2. The series can be described thus: Inhibition of LPS-induced TNFalpha production in mouse BV2 cells assessed as TNFalpha level at 20 uM pre-incubated before LPS stimulation by ELISA (reference value: 142.71%). More on the design: scale not given: the % may be the effect or the level left. The class given is functional.
The nature of series [23]: Cytotoxicity in mouse BV2 cells assessed as cell viability at 40 uM incubated for 48 hrs by MTT assay (reference value: 100%). It counts as cell-based, BV-2. As to conditions: read-out: Activity.
Series [24] relates to BV-2. The series can be described thus: Inhibition of LPS-induced IL6 production in mouse BV2 cells at 10 uM pre-incubated before LPS stimulation by ELISA. The class given is functional.
Series [25] deals with BV-2. Put plainly: Suppression of LPS-induced morphological changes in mouse BV2 cells at 10 uM pre-incubated before LPS stimulation by phase contrast microscopy. The class given is functional, cell-based.
Series [26] can be described thus: Cytotoxicity in mouse BV2 cells assessed as cell viability at 80 uM incubated for 48 hrs by MTT assay (reference value: 100%). The class given is cell-based, BV-2. The note with it: read-out: Activity.
The nature of series [27]: Cytotoxicity in mouse BV2 cells assessed as cell viability at 15 uM incubated for 48 hrs by MTT assay (reference value: 100%). The class given is cell-based, BV-2. As to conditions: read-out: Activity.
Series [28] deals with BV-2. The series can be described thus: Inhibition of LPS-induced nitric oxide production in mouse BV2 cells assessed as nitric oxide level at 20 uM pre-incubated before LPS stimulation by Griess reagent based assay (reference value: 121.09%). More on the design: scale not given: the % may be the effect or the level left. It counts as functional.
The test system of series [29] is BV-2. The series can be described thus: Inhibition of LPS-induced TNFalpha production in mouse BV2 cells assessed as TNFalpha level at 10 uM pre-incubated before LPS stimulation by ELISA (reference value: 142.71%). It counts as functional. More on the design: scale not given: the % may be the effect or the level left.
Series [30] concerns BV-2. Put plainly: Inhibition of LPS-induced nitric oxide production in mouse BV2 cells assessed as nitric oxide level at 10 uM pre-incubated before LPS stimulation by Griess reagent based assay (reference value: 121.09%). It counts as functional. More on the design: scale not given: the % may be the effect or the level left.
For series [31], the system named is BV-2. Put plainly: Suppression of LPS-induced morphological changes in mouse BV2 cells at 5 uM pre-incubated before LPS stimulation by phase contrast microscopy. The class given is functional, cell-based.
Series [32] in a line: Cytotoxicity in mouse BV2 cells assessed as cell viability at 0.5 uM incubated for 48 hrs by MTT assay (reference value: 100%). The class given is cell-based, BV-2. The note with it: read-out: Activity.
The subject of series [33] is BV-2. The series can be described thus: Inhibition of LPS-induced IL6 production in mouse BV2 cells assessed as IL6 level at 10 uM pre-incubated before LPS stimulation by ELISA (reference value: 146.75%). More on the design: scale not given: the % may be the effect or the level left. It counts as functional.
A short description of series [34]: Cytotoxicity in mouse BV2 cells assessed as cell viability at 1 uM incubated for 48 hrs by MTT assay (reference value: 100%). The class given is cell-based, BV-2. As to conditions: read-out: Activity.
Series [35] has as its system BV-2. The series can be described thus: Suppression of LPS-induced morphological changes in mouse BV2 cells at 1 to 20 uM pre-incubated before LPS stimulation by phase contrast microscopy. The class given is functional, cell-based.

Chain of Transcription factor Jun (Mus musculus) (P05627 whole entry): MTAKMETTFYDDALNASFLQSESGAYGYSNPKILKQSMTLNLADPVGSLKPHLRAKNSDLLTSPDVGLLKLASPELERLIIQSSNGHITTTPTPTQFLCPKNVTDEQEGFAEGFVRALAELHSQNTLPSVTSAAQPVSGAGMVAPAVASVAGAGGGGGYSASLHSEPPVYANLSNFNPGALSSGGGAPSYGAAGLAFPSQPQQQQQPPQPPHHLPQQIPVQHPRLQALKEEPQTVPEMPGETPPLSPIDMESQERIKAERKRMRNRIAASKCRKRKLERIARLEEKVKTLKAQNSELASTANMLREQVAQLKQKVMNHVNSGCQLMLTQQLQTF

With `NC(=O)N1C(=O)/C(=C(\O)c2cccs2)c2cc(Cl)ccc21` [TENIDAP], the inhibition at 60 µM in the series on BV-2 [1] came out at 67%.

`COc1ccc2c(c1)c(CC(=O)O)c(C)n2C(=O)c1ccc(Cl)cc1` [INDOMETHACIN] gave an inhibition at 100 µM with BV-2 [2] of 50%.

For `O=C1COCCN1c1ccc(/N=C\c2cn(C(=O)c3ccc(Cl)cc3)c3ccccc23)cc1`, the inhibition at 10 µM with BV-2 [3] amounted to 60.5%; with BV-2 [24], 47.9%. Also, the inhibition entry (in series [4]; in the series on BV-2 [9]; with BV-2 [13]; in the series filed under Mus musculus [17]) was “Active” throughout. In addition, the viability at 48 h, 20 µM in series [5] is 99%. Further, the Activity with BV-2 [6] was 89.261%; with Mus musculus [8] it was “Non-Toxic”; in the series with BV-2 [12], 84.884%; with BV-2 [20], 69.12%; with BV-2 [22] it was 41.58%; in the series on BV-2 [28], 100.905%. Moreover, the values for the Activity in the series with BV-2 [29], with BV-2 [30] and in the series on BV-2 [33] were 56.34%, 100.905% and 76.51%, respectively. Also, the viability at 48 h, 60 µM in [7] came to 84.2%. In series [10], the viability at 48 h, 10 µM was 90.1%. Besides, in series [11], the inhibition entry is “inactive”. Moreover, the inhibition in vivo at 10 mg/kg in the series with Mus musculus [14] came out at 74.9%. The inhibition at 20 µM in the series with BV-2 [15] is 52.9%; with BV-2 [16], 70.9%. For the same compound, in [18], the viability at 48 h, 5 µM was 93.6%. In series [19], the viability at 48 h, 100 µM was determined as 80.5%. In addition, the IC50 with BV-2 [21] was above 100 µM. Besides, the viability at 48 h, 40 µM in series [23] was determined as 96.6%. In addition, the outcome with BV-2 [25] and in the series on BV-2 [31] was Active. Also, the viability at 48 h, 80 µM in [26] amounted to 90.3%. Besides, in series [27], the viability at 48 h, 15 µM worked out at 105%. Besides, the viability at 48 h, 0.5 µM in [32] is 95.2%. Further, the viability at 48 h, 1 µM in [34] came to 97.6%.

Turning to `O=C1COCCN1c1ccc(/N=C\c2cn(Cc3ccc(F)cc3)c3ccccc23)cc1`, the viability at 48 h, 20 µM in [5] was 84.2%. The viability at 48 h, 60 µM in series [7] was determined as 67.4%. Further, the viability at 48 h, 10 µM in series [10] was 90%. The inhibition result in series [11] was “inactive”. Besides, the viability at 48 h, 5 µM in series [18] was 69.3%. Besides, the result with BV-2 [35] and in the series on BV-2 [25] was inactive. In addition, the viability at 48 h, 100 µM in series [19] is 55.5%. Further, the IC50 in the series with BV-2 [21] was above 100 µM. Besides, the viability at 48 h, 40 µM in series [23] was determined as 77.7%. Moreover, the viability at 48 h, 80 µM in [26] amounted to 59%. Further, the viability at 48 h, 15 µM in [27] was 86.1%. Further, in series [32], the viability at 48 h, 0.5 µM amounted to 102%. The viability at 48 h, 1 µM in [34] is 87.8%.
